According to PMC12396409, “Screening and hit evaluation of a microbial metabolite library against the pathogenic Plasmodium falciparum and Toxoplasma gondii parasites” (International Journal for Parasitology: Drugs and Drug …, 2025):
Where two headings read alike, the source gives them in different places. Where a SMILES comes first, the peptide text is derived from it. [ ]: non-standard residue; d: D form. d(aIle) = CC[C@H](C)[C@@H](N)C(=O)O; Hica(2S) = CC(C)C[C@H](O)C(=O)O; NMeL = CN[C@@H](CC(C)C)C(=O)O; Hiv = CC(C)[C@H](O)C(=O)O

Legend:
[1] = system: T. gondii RH strain (RH-Tub-eYFP) tachyzoites; test: microbe, parasite or virus in culture; type: cell-based, Toxoplasma gondii; details: 72 h, 72 h; for percent parasite growth at 2 µg/mL: Toxoplasma gondii
[2] = system: P. falciparum 3D7 parasites; test: P. falciparum growth inhibition assay, 2-cycle (120 h treatment), delayed-death screen and dose-response; type: cell-based, Plasmodium falciparum
[3] = system: P. falciparum 3D7 parasites; test: P. falciparum growth inhibition assay, 1-cycle (72 h treatment), SYBR DNA staining (library screen at 2 μg/mL and dose-response); type: cell-based, Plasmodium falciparum
[4] = library screen at 2 μg/mL, % growth, replicate 1, read-out: Tg_72h_%Growth_Rep1
[5] = library screen at 2 μg/mL, % growth, replicate 2, read-out: Tg_72h_%Growth_Rep2
[6] = Plasmodium falciparum, 3D7, library screen at 2 μg/mL, 120 h, % growth, replicate 1, read-out: Pf_120h_%Growth_Rep1
[7] = Plasmodium falciparum, 3D7, library screen at 2 μg/mL, 120 h, % growth, replicate 2, read-out: Pf_120h_%Growth_Rep2
[8] = Plasmodium falciparum, 3D7, library screen at 2 μg/mL, 72 h, % growth, replicate 1, read-out: Pf_72h_%Growth_Rep1
[9] = Plasmodium falciparum, 3D7, library screen at 2 μg/mL, 72 h, % growth, replicate 2, read-out: Pf_72h_%Growth_Rep2
[10] = library screen at 2 μg/mL, % growth, replicate 1
[11] = library screen at 2 μg/mL, % growth, replicate 2
[12] = library screen at 2 μg/mL, 120 h, % growth, replicate 1
[13] = library screen at 2 μg/mL, 120 h, % growth, replicate 2
[14] = library screen at 2 μg/mL, 72 h, % growth, replicate 1
[15] = library screen at 2 μg/mL, 72 h, % growth, replicate 2
[16] = T. gondii, screen at 2 μg/mL, replicate 1
[17] = T. gondii, screen at 2 μg/mL, replicate 2
[18] = P. falciparum, 120 h, screen at 2 μg/mL, replicate 1
[19] = P. falciparum, 120 h, screen at 2 μg/mL, replicate 2
[20] = P. falciparum, 72 h, screen at 2 μg/mL, replicate 1
[21] = P. falciparum, 72 h, screen at 2 μg/mL, replicate 2

## C=C1CCO[C@]2([C@@H](O)[C@@](C)(O)CO)NC(=O)[C@@]1(O)NC2=O [Bicyclomycin]
[1]; [4]
  percent parasite growth at 2 µg/mL: 126%
[1]; [5]
  percent parasite growth at 2 µg/mL: 100%
[2]; [6]
  activity at 2 µg/mL: 102%
[2]; [7]
  activity at 2 µg/mL: 86.7%
[3]; [8]
  activity at 2 µg/mL: 82.6%
[3]; [9]
  activity at 2 µg/mL: 88%

## Eprinomectin
[1]; [10]
  Tg_72h_%Growth_Rep1: 130.43%
[1]; [11]
  Tg_72h_%Growth_Rep2: 107.67%
[2]; [12]
  Pf_120h_%Growth_Rep1: 33.01%
[2]; [13]
  Pf_120h_%Growth_Rep2: 14.57%
[3]; [14]
  Pf_72h_%Growth_Rep1: 61.67%
[3]; [15]
  Pf_72h_%Growth_Rep2: 29.66%

## O=c1c(-c2ccc(O)cc2)coc2cc(O)ccc12 [Daidzein]
[1]; T. gondii, screen at 2 μg/mL, replicate 1, read-out: Tg_72h_%Growth_Rep1
  percent parasite growth at 2 µg/mL: 125%
[1]; T. gondii, screen at 2 μg/mL, replicate 2, read-out: Tg_72h_%Growth_Rep2
  percent parasite growth at 2 µg/mL: 97%
[2]; Plasmodium falciparum, 3D7, P. falciparum, 120 h, screen at 2 μg/mL, replicate 1, read-out: Pf_120h_%Growth_Rep1
  activity at 2 µg/mL: 103%
[2]; Plasmodium falciparum, 3D7, P. falciparum, 120 h, screen at 2 μg/mL, replicate 2, read-out: Pf_120h_%Growth_Rep2
  activity at 2 µg/mL: 95.5%
[3]; Plasmodium falciparum, 3D7, P. falciparum, 72 h, screen at 2 μg/mL, replicate 1, read-out: Pf_72h_%Growth_Rep1
  activity at 2 µg/mL: 83.8%
[3]; Plasmodium falciparum, 3D7, P. falciparum, 72 h, screen at 2 μg/mL, replicate 2, read-out: Pf_72h_%Growth_Rep2
  activity at 2 µg/mL: 88.8%

## COc1ccc(Cl)c(C)c1C(=O)O[C@@H]1C[C@H](O[C@H]2[C@H](O)C[C@H](O[C@H]3CCC[C@@H]4[C@@H]3C=C[C@H]3CCCC/C=C/[C@@H]5C=C(C(=O)O)[C@H](C)C[C@]56OC(=O)C(=C6O)OC(=O)[C@@]43C)O[C@@H]2C)O[C@H](C)[C@H]1O [Chlorothricin]
[1]; [16]
  Tg_72h_%Growth_Rep1: 75.08%
[1]; [17]
  Tg_72h_%Growth_Rep2: 94.25%
[2]; [18]
  Pf_120h_%Growth_Rep1: 151.59%
[2]; [19]
  Pf_120h_%Growth_Rep2: 96.98%
[3]; [20]
  Pf_72h_%Growth_Rep1: 106.01%
[3]; [21]
  Pf_72h_%Growth_Rep2: 86.61%

## Cc1c2c(c(O)c3c(O)ccc(Cl)c13)C(=O)C1(O)C(O)=C(C(N)=O)C(=O)C(N(C)C)C1C2.Cl (centres unmarked)
[1]; [10]
  Tg_72h_%Growth_Rep1: 119.39%
[1]; [11]
  Tg_72h_%Growth_Rep2: 96.29%
[2]; [12]
  Pf_120h_%Growth_Rep1: 95.25%
[2]; [13]
  Pf_120h_%Growth_Rep2: 115.61%
[3]; [14]
  Pf_72h_%Growth_Rep1: 85.99%
[3]; [15]
  Pf_72h_%Growth_Rep2: 99.34%

## CC(=O)OCc1c(O)c2c(c3c1OC(=O)c1c(C)cc(O)c(C=O)c1O3)C(O)OC2=O (centres unmarked) [Galbinic acid]
[1]; [10]
  Tg_72h_%Growth_Rep1: 125.30%
[1]; [11]
  Tg_72h_%Growth_Rep2: 103.13%
[2]; [12]
  Pf_120h_%Growth_Rep1: 99.54%
[2]; [13]
  Pf_120h_%Growth_Rep2: 110.27%
[3]; [14]
  Pf_72h_%Growth_Rep1: 88.09%
[3]; [15]
  Pf_72h_%Growth_Rep2: 110.75%

## COc1cc(C)c(C(=O)Oc2cc(C)c(C(=O)O)c(O)c2)c(O)c1 [Evernic acid]
[1]; [4]
  percent parasite growth at 2 µg/mL: 133%
[1]; [5]
  percent parasite growth at 2 µg/mL: 102%
[2]; [6]
  activity at 2 µg/mL: 97.5%
[2]; [7]
  activity at 2 µg/mL: 94.9%
[3]; [8]
  activity at 2 µg/mL: 86.3%
[3]; [9]
  activity at 2 µg/mL: 86.5%

## CO/C1=C\C(C)=C\C(C)C(O)C(C)C/C(C)=C/C=C/C(OC)C(C(C)C(O)C(C)C2(O)CC(OC(=O)/C=C/C(=O)O)C(C)C(C(C)C)O2)OC1=O (centres unmarked) [Bafilomycin C1]
[1]; [10]
  Tg_72h_%Growth_Rep1: -0.73%
[1]; [11]
  Tg_72h_%Growth_Rep2: -0.13%
[2]; [12]
  Pf_120h_%Growth_Rep1: 3.53%
[2]; [13]
  Pf_120h_%Growth_Rep2: -2.55%
[3]; [14]
  Pf_72h_%Growth_Rep1: 1.92%
[3]; [15]
  Pf_72h_%Growth_Rep2: 0.47%

## CC[C@H](C)[C@H]1NC(=O)[C@H](C(C)C)OC(=O)[C@H](CC(C)C)N(C)C(=O)[C@H](C(C)C)NC(=O)[C@H](CC(C)C)OC(=O)[C@@H](CC(C)C)NC1=O [Sporidesmolide V] (cyclo([Hica(2S)]V[NMeL][Hiv][d(aIle)][dL]))
[1]; T. gondii, parasite screen 2 μg/mL, % growth, replicate 1
  Tg_72h_%Growth_Rep1: 84.27%
[1]; T. gondii, parasite screen 2 μg/mL, % growth, replicate 2
  Tg_72h_%Growth_Rep2: 95.04%
[2]; P. falciparum, 120 h, parasite screen 2 μg/mL, % growth, replicate 1
  Pf_120h_%Growth_Rep1: 158.27%
[2]; P. falciparum, 120 h, parasite screen 2 μg/mL, % growth, replicate 2
  Pf_120h_%Growth_Rep2: 82.66%
[3]; P. falciparum, 72 h, parasite screen 2 μg/mL, % growth, replicate 1
  Pf_72h_%Growth_Rep1: 8.13%
[3]; P. falciparum, 72 h, parasite screen 2 μg/mL, % growth, replicate 2
  Pf_72h_%Growth_Rep2: 0.54%

## CC(C)CCC[C@@H](C)[C@@H]1CC[C@]2(C)C3=C(CC[C@@]12C)[C@@]1(C)CC[C@H](O)C(C)(C)[C@@H]1CC3 [Dihydroeuphol]
[1]; [10]
  Tg_72h_%Growth_Rep1: 139.10%
[1]; [11]
  Tg_72h_%Growth_Rep2: 102.23%
[2]; [12]
  Pf_120h_%Growth_Rep1: 82.20%
[2]; [13]
  Pf_120h_%Growth_Rep2: 96.98%
[3]; [14]
  Pf_72h_%Growth_Rep1: 82.89%
[3]; [15]
  Pf_72h_%Growth_Rep2: 91.07%

## C[C@@H]1CCC[C@H](O)CCC/C=C/c2cc(O)cc(O)c2C(=O)O1 [Zearalenol, beta-]
[1]; [16]
  Tg_72h_%Growth_Rep1: 134.26%
[1]; [17]
  Tg_72h_%Growth_Rep2: 80.69%
[2]; [18]
  Pf_120h_%Growth_Rep1: 110.27%
[2]; [19]
  Pf_120h_%Growth_Rep2: 105.90%
[3]; [20]
  Pf_72h_%Growth_Rep1: 92.46%
[3]; [21]
  Pf_72h_%Growth_Rep2: 126.46%

## CS(=O)(=O)c1ccc([C@@H](O)[C@@H](CF)NC(=O)C(Cl)Cl)cc1 [Florfenicol, reference compound]
[1]; [4]
  percent parasite growth at 2 µg/mL: 47.1%
[1]; [5]
  percent parasite growth at 2 µg/mL: 48.9%
[2]
  3) Fold change (72 h/120 h): 5.8
[2]; Plasmodium falciparum, 3D7, 120 h, P. falciparum, 2 μg/mL, 120 h; read-out: 2) Growth (%) at 120 h
  activity at 2 µg/mL: 10.8%
[2]; Plasmodium falciparum, 3D7, 120 h, library screen at 2 μg/mL, 120 h, % growth, replicate 1, read-out: Pf_120h_%Growth_Rep1
  activity at 2 µg/mL: 12.9%
[2]; Plasmodium falciparum, 3D7, 120 h, library screen at 2 μg/mL, 120 h, % growth, replicate 2, read-out: Pf_120h_%Growth_Rep2
  activity at 2 µg/mL: 8.65%
[3]; Plasmodium falciparum, 3D7, 72 h, P. falciparum, 2 μg/mL, 72 h; read-out: 1) Growth (%) at 72 h
  activity at 2 µg/mL: 62.4%
[3]; Plasmodium falciparum, 3D7, 72 h, library screen at 2 μg/mL, 72 h, % growth, replicate 1, read-out: Pf_72h_%Growth_Rep1
  activity at 2 µg/mL: 69.7%
[3]; Plasmodium falciparum, 3D7, 72 h, library screen at 2 μg/mL, 72 h, % growth, replicate 2, read-out: Pf_72h_%Growth_Rep2
  activity at 2 µg/mL: 55.2%

## C=C1CC[C@H]2C(C)(C)CCC[C@]2(C)[C@H]1C[C@@]12C[C@H]3C(=O)N4CCC=C4C(=O)N3[C@@H]1Nc1ccccc12 [Drimentine B]
[1]; [10]
  Tg_72h_%Growth_Rep1: 108.85%
[1]; [11]
  Tg_72h_%Growth_Rep2: 84.36%
[2]; [12]
  Pf_120h_%Growth_Rep1: 84.09%
[2]; [13]
  Pf_120h_%Growth_Rep2: 80.10%
[3]; [14]
  Pf_72h_%Growth_Rep1: 74.87%
[3]; [15]
  Pf_72h_%Growth_Rep2: 73.00%

## CN[C@@H]1C[C@H]2O[C@@](C)([C@@H]1OC)n1c3ccccc3c3c4c(c5c6ccccc6n2c5c31)C(=O)NC4 [staurosporine, reference compound]
[1]; 2 μg/mL, active = ≥80 % growth inhibition
  activity in the screen against T. gondii: active in our screens
[1]; T. gondii, parasite screen 2 μg/mL, % growth, replicate 1, read-out: Tg_72h_%Growth_Rep1
  percent parasite growth at 2 µg/mL: 1.08%
[1]; T. gondii, parasite screen 2 μg/mL, % growth, replicate 2, read-out: Tg_72h_%Growth_Rep2
  percent parasite growth at 2 µg/mL: -0.18%
[2]; Plasmodium falciparum, 3D7, 120 h, P. falciparum, 120 h, parasite screen 2 μg/mL, % growth, replicate 1, read-out: Pf_120h_%Growth_Rep1
  activity at 2 µg/mL: 10.8%
[2]; Plasmodium falciparum, 3D7, 120 h, P. falciparum, 120 h, parasite screen 2 μg/mL, % growth, replicate 2, read-out: Pf_120h_%Growth_Rep2
  activity at 2 µg/mL: 1.05%
[3]; 2 μg/mL, 72 h, active = ≥80 % growth inhibition
  activity in the screen against P. falciparum: active in our screens
[3]; Plasmodium falciparum, 3D7, 72 h, P. falciparum, 72 h, parasite screen 2 μg/mL, % growth, replicate 1, read-out: Pf_72h_%Growth_Rep1
  activity at 2 µg/mL: 9.8%
[3]; Plasmodium falciparum, 3D7, 72 h, P. falciparum, 72 h, parasite screen 2 μg/mL, % growth, replicate 2, read-out: Pf_72h_%Growth_Rep2
  activity at 2 µg/mL: -0.94%
